Patent US20090215849A1, “High stability aqueous gels comprising metronidazole and methods for the preparation thereof” (GALDERMA S.A., priority 2005, published 2009)

Test: Solubility of metronidazole in water
Type: physicochemical
Conditions: water/propylene glycol mixtures said to give higher solubilities (values not given)
Source text: Without wishing to be bound by any particular theory, it is possible that the stabilizing effect according to the invention is at least partly due to the fact that a mixture of water and propylene glycol allows a very good solubilization of metronidazole, in particular when the water and the propylene glycol are present in the abovementioned advantageous ranges, whereas a lower solubilization is obtained when the propylene glycol is introduced after the dissolution of the metronidazole in water, even when the propylene glycol is post-introduced in large quantities as in the method of U.S. Pat. No. 4,837,378.

solubility in water: ~0.78%
SMILES: Cc1ncc([N+](=O)[O-])n1CCO [Metronidazole, 1-(2-hydroxyethyl)-2-methyl-5-nitroimidazole]
